Laboratory results taken from patent US4436751A, “Nitrobenzyl monates antibacterial compounds” (Beecham Group Limited, priority 1980, dated 1984).
≈ marks a conversion by molar mass, not a printed value. Read-outs that look alike come from different tables or passages of the source.

Key:
Assay type in all cases: cell-based
M. suipneumoniae TAM 6N = test: Anti-mycoplasmal MIC in vitro, Friis broth agarose (Table 1); conditions: Mesomycoplasma hyopneumoniae, TAM6N, 144 h
[1] = system: M. suipneumoniae J2206/183b; test: as above; conditions: Mesomycoplasma hyopneumoniae, 144 h
S. typhimurium S18 = test: Veterinary bacteria MIC, Diagnostic Sensitivity Test Agar (Table 2); conditions: Salmonella enterica
Protocol: (§1) The values were determined using a two fold serial dilutions in Diagnostic Sensitivity Test Agar with an inoculum of 10^4 organisms and incubation for 18 hours at 37° C.

Staph. aureus B4 = test: as above; conditions: Staphylococcus aureus; Staph. aureus B4; DST Agar, 10^4 organisms, 18 hours 37° C.; read-out: MIC
Protocol: as §1

[2] = system: Erysipelothrix rhusiopathiae NCTC 8163; test: as above; conditions: NCTC8163; Erysipelothrix rhusiopathiae NCTC 8163; DST Agar, 10^4 organisms, 18 hours 37° C.; read-out: MIC
Protocol: as §1

Strep. uberis SPO1 = test: as above; conditions: Streptococcus uberis; Strep. uberis SPO1; DST Agar, 10^4 organisms, 18 hours 37° C.; read-out: MIC
Protocol: as §1

Staph. aureus Oxford = test: as above; conditions: Staphylococcus aureus; Staph. aureus Oxford; DST Agar, 10^4 organisms, 18 hours 37° C.; read-out: MIC
Protocol: as §1

Bord. bronchiseptica BO9 = test: as above; conditions: Bordetella bronchiseptica
Protocol: as §1

[3] = system: Corynebacterium pyogenes CY1; test: as above; conditions: Trueperella pyogenes
Protocol: as §1

Past. multocida PA1 = test: as above; conditions: Pasteurella multocida; Past. multocida PA1; DST Agar, 10^4 organisms, 18 hours 37° C.; read-out: MIC
Protocol: as §1

Staph. aureus 152 = test: as above; conditions: Staphylococcus aureus; Staph. aureus 152; DST Agar, 10^4 organisms, 18 hours 37° C.; read-out: MIC
Protocol: as §1

[4] = system: Strep. suis (group D) SPS11; test: as above; conditions: Streptococcus suis
Protocol: as §1

Bord. bronchiseptica BO8 = test: as above; conditions: Bordetella bronchiseptica
Protocol: as §1

E. Coli NCTC 10418 = test: as above; conditions: Escherichia coli
Protocol: as §1

S. dublin S7 = test: as above; conditions: Salmonella enterica
Protocol: as §1

Past. haemolytica PA5 = test: as above; conditions: Mannheimia haemolytica
Protocol: as §1

Strep. dylgalactiae SPD1 = test: as above; conditions: Strep. dylgalactiae SPD1; DST Agar, 10^4 organisms, 18 hours 37° C.; read-out: MIC
Protocol: as §1

Past. multocida PA2 = test: as above; conditions: Pasteurella multocida; Past. multocida PA2; DST Agar, 10^4 organisms, 18 hours 37° C.; read-out: MIC
Protocol: as §1

Strep. agalactiae SPA1 = test: as above; conditions: Streptococcus agalactiae; Strep. agalactiae SPA1; DST Agar, 10^4 organisms, 18 hours 37° C.; read-out: MIC
Protocol: as §1

[5] = system: M. bovigenitalium ATOC 14173; test: Anti-mycoplasmal MIC in vitro, Friis broth agarose (Table 1); conditions: 144 h
M. hyorhinis ATCC 23234 = test: as above; conditions: Mesomycoplasma hyorhinis, ATCC23234, 144 h
M. suipneumoniae LABER = test: as above; conditions: Mesomycoplasma hyopneumoniae, 144 h
M. suipneumoniae Str. 11 = test: as above; conditions: Mesomycoplasma hyopneumoniae
M. suipneumoniae MS 16 = test: as above; conditions: Mesomycoplasma hyopneumoniae, MS16, 144 h
M. suipneumoniae NB12 = test: as above; conditions: Mesomycoplasma hyopneumoniae
M. dispar RCTC 10125 = test: as above; conditions: 144 h
M. gallisepticum S6 = test: as above; conditions: Mycoplasmoides gallisepticum
[6] = Strep. suis (group D) SPS11, DST Agar, 10^4 organisms, 18 hours 37° C., read-out: MIC
[7] = Past. haemolytica PA5, DST Agar, 10^4 organisms, 18 hours 37° C., read-out: MIC
[8] = M. suipneumoniae TAM 6N, in vitro, 6 days 37° C., read-out: MIC
[9] = M. suipneumoniae J2206/183b, in vitro, 6 days 37° C., read-out: MIC
[10] = S. typhimurium S18, DST Agar, 10^4 organisms, 18 hours 37° C., read-out: MIC
[11] = Bord. bronchiseptica BO9, DST Agar, 10^4 organisms, 18 hours 37° C., read-out: MIC
[12] = NCTC10418, E. Coli NCTC 10418, DST Agar, 10^4 organisms, 18 hours 37° C., read-out: MIC
[13] = S. dublin S7, DST Agar, 10^4 organisms, 18 hours 37° C., read-out: MIC

Compound | MIC (Staph. aureus B4) | MIC [2] | MIC (Strep. uberis SPO1) | MIC (Staph. aureus Oxford) | MIC ([3]; CY1, 18 h) | MIC (Past. multocida PA1) | MIC (Staph. aureus 152) | MIC [4, 6] | MIC (Bord. bronchiseptica BO8; BO8, 18 h) | MIC (Past. haemolytica PA5; [7]) | MIC (Strep. dylgalactiae SPD1) | MIC (Past. multocida PA2) | MIC (Strep. agalactiae SPA1) | MIC [5] | MIC (M. hyorhinis ATCC 23234) | MIC (M. suipneumoniae LABER) | MIC (M. suipneumoniae Str. 11; STR.11, 144 h) | MIC (M. suipneumoniae MS 16) | MIC (M. suipneumoniae NB12; NB12, 144 h) | MIC (M. dispar RCTC 10125) | further results
C/C(=C\C(=O)OCc1ccccc1[N+](=O)[O-])CC1OCC(CC2OC2C(C)C(C)O)C(O)C1O (stereo not drawn) [C, O--nitrobenzyl monate A, reference compound] | 0.625 µg/mL (≈ 1.3 µM) | 80 µg/mL (≈ 167 µM) | 0.07 µg/mL (≈ 0.146 µM) | 0.625 µg/mL (≈ 1.3 µM) | > 80 µg/mL | 2.5 µg/mL (≈ 5.21 µM) | 0.625 µg/mL (≈ 1.3 µM) | 20 µg/mL (≈ 41.7 µM) | 80 µg/mL (≈ 167 µM) | 10 µg/mL (≈ 20.9 µM) | 0.625 µg/mL (≈ 1.3 µM) | 1.25 µg/mL (≈ 2.61 µM) | 2.5 µg/mL (≈ 5.21 µM) | 0.025 µg/mL (≈ 0.0521 µM) | 0.25 µg/mL (≈ 0.521 µM) | 0.25 µg/mL (≈ 0.521 µM) | 0.25 µg/mL (≈ 0.521 µM) | 0.25 µg/mL (≈ 0.521 µM) | 0.5 µg/mL (≈ 1.04 µM) | 0.1 µg/mL (≈ 0.209 µM) | MIC (M. suipneumoniae TAM 6N): 0.5 µg/mL (≈ 1.04 µM); MIC ([1]; J2206/183B): 0.5 µg/mL (≈ 1.04 µM); MIC (S. typhimurium S18; TYPHIMURIUM, 18 h): > 80 µg/mL; MIC (Bord. bronchiseptica BO9; BO9, 18 h): 10 µg/mL (≈ 20.9 µM); MIC (E. Coli NCTC 10418; NCTC10418, 18 h): > 80 µg/mL; MIC (S. dublin S7; S7, 18 h): > 80 µg/mL; MIC (M. gallisepticum S6; S6, 144 h): 5 µg/mL (≈ 10.4 µM)
C/C(=C\C(=O)OCc1ccc([N+](=O)[O-])cc1)CC1OCC(CC2OC2C(C)C(C)O)C(O)C1O (stereo not drawn) [Example 1, p-nitrobenzyl monate A] | 0.156 µg/mL (≈ 0.325 µM) | 10 µg/mL (≈ 20.9 µM) | 0.039 µg/mL (≈ 0.0813 µM) | 0.156 µg/mL (≈ 0.325 µM) | > 80 µg/mL | 0.156 µg/mL (≈ 0.325 µM) | 0.156 µg/mL (≈ 0.325 µM) |  | 5 µg/mL (≈ 10.4 µM) |  | 0.07 µg/mL (≈ 0.146 µM) | > 0.019 µg/mL | 0.317 µg/mL (≈ 0.661 µM) | < 0.01 µg/mL | 0.05 µg/mL (≈ 0.104 µM) | 0.05 µg/mL (≈ 0.104 µM) | 0.05 µg/mL (≈ 0.104 µM) | 0.05 µg/mL (≈ 0.104 µM) | 0.05 µg/mL (≈ 0.104 µM) | 0.025 µg/mL (≈ 0.0521 µM) | MIC (M. suipneumoniae TAM 6N; [8]): 0.1 µg/mL (≈ 0.209 µM); MIC [1, 9]: 0.1 µg/mL (≈ 0.209 µM); MIC (S. typhimurium S18; [10]): 40 µg/mL (≈ 83.4 µM); MIC (Bord. bronchiseptica BO9; [11]): 1.25 µg/mL (≈ 2.61 µM); MIC ([4]; 18 h): 1.25 µg/mL (≈ 2.61 µM); MIC (E. Coli NCTC 10418; [12]): 40 µg/mL (≈ 83.4 µM); MIC (S. dublin S7; [13]): 40 µg/mL (≈ 83.4 µM); MIC (Past. haemolytica PA5; PA5, 18 h): 1.25 µg/mL (≈ 2.61 µM); MIC (M. gallisepticum S6; S6, 144 h): 0.25 µg/mL (≈ 0.521 µM)
C/C(=C\C(=O)OCc1cccc([N+](=O)[O-])c1)CC1OCC(CC2OC2C(C)C(C)O)C(O)C1O (stereo not drawn) [Example 2, m-nitrobenzyl monate A] | 0.625 µg/mL (≈ 1.3 µM) | 20 µg/mL (≈ 41.7 µM) | 0.07 µg/mL (≈ 0.146 µM) | 0.625 µg/mL (≈ 1.3 µM) |  | 0.615 µg/mL (≈ 1.28 µM) | 0.625 µg/mL (≈ 1.3 µM) | 5 µg/mL (≈ 10.4 µM) |  | 5 µg/mL (≈ 10.4 µM) | 0.312 µg/mL (≈ 0.651 µM) | 0.312 µg/mL (≈ 0.651 µM) | 0.625 µg/mL (≈ 1.3 µM) |  |  |  |  |  |  |  | MIC (M. suipneumoniae TAM 6N; [8]): 0.025 µg/mL (≈ 0.0521 µM); MIC [1, 9]: 0.025 µg/mL (≈ 0.0521 µM); MIC (S. typhimurium S18; [10]): 40 µg/mL (≈ 83.4 µM); MIC (Bord. bronchiseptica BO9; [11]): 5 µg/mL (≈ 10.4 µM); MIC ([3]; Corynebacterium pyogenes CY1, DST Agar, 10^4 organisms, 18 hours 37° C., read-out: MIC): > 80 µg/mL; MIC (Bord. bronchiseptica BO8; Bord. bronchiseptica BO8, DST Agar, 10^4 organisms, 18 hours 37° C., read-out: MIC): 20 µg/mL (≈ 41.7 µM); MIC (E. Coli NCTC 10418; [12]): 40 µg/mL (≈ 83.4 µM); MIC (S. dublin S7; [13]): 80 µg/mL (≈ 167 µM); MIC ([5]; M. bovigenitalium ATOC 14173, in vitro, 6 days 37° C., read-out: MIC): ≤ 0.01 µg/mL; MIC (M. hyorhinis ATCC 23234; M. hyorhinis ATCC 23234, in vitro, 6 days 37° C., read-out: MIC): ≤ 0.01 µg/mL; MIC (M. suipneumoniae LABER; M. suipneumoniae LABER, in vitro, 6 days 37° C., read-out: MIC): 0.025 µg/mL (≈ 0.0521 µM); MIC (M. suipneumoniae Str. 11; 144 h, M. suipneumoniae Str. 11, in vitro, 6 days 37° C., read-out: MIC): 0.025 µg/mL (≈ 0.0521 µM); MIC (M. suipneumoniae MS 16; M. suipneumoniae MS 16, in vitro, 6 days 37° C., read-out: MIC): ≤ 0.01 µg/mL; MIC (M. suipneumoniae NB12; 144 h, M. suipneumoniae NB12, in vitro, 6 days 37° C., read-out: MIC): 0.025 µg/mL (≈ 0.0521 µM); MIC (M. dispar RCTC 10125; M. dispar RCTC 10125, in vitro, 6 days 37° C., read-out: MIC): 0.01 µg/mL (≈ 0.0209 µM); MIC (M. gallisepticum S6; 144 h, M. gallisepticum S6, in vitro, 6 days 37° C., read-out: MIC): 2.5 µg/mL (≈ 5.21 µM)
